Measured values taken from ChEMBL document CHEMBL3046495, “CoMFA, ADVANCE CoMFA AND CoMSIA STUDIES ON THE OXADIAZOLE SUBSTITUTED -ISOPROPOXY PHENYLPROPIONIC ACIDS FOR PPAR AGONISTIC ACTIVITY” (Med Chem Res, 2004).
pEC50: −log10 of the molar value.

Target: T1, Peroxisome proliferator-activated receptor alpha (Homo sapiens, UniProt Q07869)
T1 sequence (Q07869 whole entry): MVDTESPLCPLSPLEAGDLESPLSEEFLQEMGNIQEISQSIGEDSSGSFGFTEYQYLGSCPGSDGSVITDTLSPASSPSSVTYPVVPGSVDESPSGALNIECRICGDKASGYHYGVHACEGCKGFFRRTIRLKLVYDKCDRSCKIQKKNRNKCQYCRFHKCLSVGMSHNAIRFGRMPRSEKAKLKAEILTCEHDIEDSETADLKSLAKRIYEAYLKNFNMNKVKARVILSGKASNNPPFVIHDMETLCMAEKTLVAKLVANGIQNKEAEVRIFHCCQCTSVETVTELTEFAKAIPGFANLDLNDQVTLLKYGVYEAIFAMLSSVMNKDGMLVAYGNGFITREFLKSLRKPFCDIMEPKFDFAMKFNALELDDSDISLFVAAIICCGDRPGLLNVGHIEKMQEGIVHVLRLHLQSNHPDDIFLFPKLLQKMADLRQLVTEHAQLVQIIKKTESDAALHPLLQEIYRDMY
Assay: Agonist activity at PPARalpha (unknown origin)

| Compound | pEC50 |
| --- | --- |
| CC(C)OC(Cc1ccc(OCCc2noc(C3CCCCC3)n2)cc1)C(=O)O (configuration not stated) | 6.62 |
| CC(C)Cc1ccc(-c2nc(COc3ccc(CC(OC(C)C)C(=O)O)cc3)no2)cc1 (configuration not stated) | 7.40 |
